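All cell lines were grown in 96-well plates and treated with compound for 48 hours. At the GI50, growth is halved.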 Activity calls are given as the source filed them. Cut-off read from the data, not from the text of the source: active = GI50 up to about 1.1 µM and inactive = higher.
Tests used:
Test in all cases: NCI-60 cell line screen, 48 h
[1] = tested on: OVCAR-8
[2] = tested on: MDA-MB-435
[3] = tested on: SK-OV-3
[4] = tested on: SR
[5] = tested on: M14
[6] = tested on: PC-3
[7] = tested on: HCT-15
[8] = tested on: RPMI-8226
[9] = tested on: DU-145
[10] = tested on: SF-539
[11] = tested on: SK-MEL-5
[12] = tested on: SF-268
[13] = tested on: HCT-116
[14] = tested on: LOX IMVI
[15] = tested on: OVCAR-4
[16] = tested on: HCC 2998
[17] = tested on: BT-549
[18] = tested on: OVCAR-3
[19] = tested on: RXF 393
[20] = tested on: Malme-3M

| SMILES | GI50 [1] | GI50 [2] | GI50 [3] | GI50 [4] | GI50 [5] | GI50 [6] | GI50 [7] [µM] | GI50 [8] | GI50 [9] | GI50 [10] | GI50 [11] | GI50 [12] | GI50 [13] | GI50 [14] | GI50 [15] | GI50 [16] | GI50 [17] | GI50 [18] | GI50 [19] | GI50 [20] |
| --- | --- | --- | --- | --- | --- | --- | --- | --- | --- | --- | --- | --- | --- | --- | --- | --- | --- | --- | --- | --- |
| O=C(O)CCc1nc2c(n1-c1ccccc1)C(=O)c1ccccc1C2=O | > 100 µM (inactive) | 87.5 µM (inactive) | > 100 µM (inactive) | > 100 µM (inactive) | > 100 µM (inactive) | > 100 µM (inactive) | > 100 | > 100 µM (inactive) | > 100 µM (inactive) | > 100 µM (inactive) | > 100 µM (inactive) | > 100 µM (inactive) | 50.2 µM (inactive) | 70.5 µM (inactive) | > 100 µM (inactive) | > 100 µM (inactive) | > 100 µM (inactive) | > 100 µM (inactive) | > 100 µM (inactive) |  |
| O=C1CC(=O)NC(NN2C(=O)CSC2c2ccc(Cl)cc2)=N1 (stereo not given) | 91.6 µM (inactive) | > 100 µM (inactive) | > 100 µM (inactive) | 39.2 µM (inactive) | 55.6 µM (inactive) | > 100 µM (inactive) | > 100 | > 100 µM (inactive) | > 100 µM (inactive) | > 100 µM (inactive) | > 100 µM (inactive) | 45 µM (inactive) | > 100 µM (inactive) |  | > 100 µM (inactive) | > 100 µM (inactive) | 33.8 µM (inactive) | > 100 µM (inactive) | > 100 µM (inactive) | 65.8 µM (inactive) |
| Cn1c2n/c(=N\c3ccc(Cl)cc3)[n+]3ccc4ccccc4c3c-2c([O-])n1-c1ccccc1 | > 100 µM (inactive) | > 100 µM (inactive) |  | > 100 µM (inactive) |  | > 100 µM (inactive) | > 100 | > 100 µM (inactive) | > 100 µM (inactive) |  | > 100 µM (inactive) | > 100 µM (inactive) | > 100 µM (inactive) | > 100 µM (inactive) | > 100 µM (inactive) | > 100 µM (inactive) | > 100 µM (inactive) | > 100 µM (inactive) | > 100 µM (inactive) | > 100 µM (inactive) |
| NCc1ccc(O)c(O)c1 | > 100 µM (inactive) | > 100 µM (inactive) | > 100 µM (inactive) | 38.5 µM (inactive) | > 100 µM (inactive) | > 100 µM (inactive) | > 100 | > 100 µM (inactive) | > 100 µM (inactive) | > 100 µM (inactive) | > 100 µM (inactive) |  | > 100 µM (inactive) | > 100 µM (inactive) | > 100 µM (inactive) | > 100 µM (inactive) | > 100 µM (inactive) | 55.8 µM (inactive) | > 100 µM (inactive) |  |
| Fc1cc(C2=Nn3c(CNc4ccc(Cl)cc4)nnc3S/C2=C\c2ccc(-c3ccc(Cl)cc3)o2)c(Cl)cc1Cl | 51.1 µM (inactive) | 68.5 µM (inactive) |  | 29.6 µM (inactive) | 53.3 µM (inactive) | 14.9 µM (inactive) | > 100 | 23.2 µM (inactive) | 65 µM (inactive) |  | 26.1 µM (inactive) | 53.2 µM (inactive) | 63.2 µM (inactive) | 22.8 µM (inactive) |  | 57.8 µM (inactive) | > 100 µM (inactive) | 29.6 µM (inactive) | 13.4 µM (inactive) | 17.3 µM (inactive) |
| CCCC(=O)N(C(=O)CCC)C1=C(Cl)C(=O)c2ccccc2C1=O | 6.25 µM (inactive) | 4.63 µM (inactive) | 15.5 µM (inactive) | 3.02 µM (inactive) | 6.62 µM (inactive) | 4.06 µM (inactive) | 2.1 |  | 14 µM (inactive) | 3.62 µM (inactive) | 3.1 µM (inactive) | 4.32 µM (inactive) | 2.72 µM (inactive) | 3.66 µM (inactive) | 5.52 µM (inactive) | 4.04 µM (inactive) | 3.41 µM (inactive) | 3.21 µM (inactive) | 2.17 µM (inactive) |  |
| O=C1Nc2ccccc2/C1=N/Nc1ccc([N+](=O)[O-])cc1[N+](=O)[O-] | 9.59 µM (inactive) | 98.4 µM (inactive) | 12.1 µM (inactive) | 25.6 µM (inactive) | 12.9 µM (inactive) | 12.9 µM (inactive) | 13.8 | 26.1 µM (inactive) | 7.82 µM (inactive) | 2.48 µM (inactive) | 10.6 µM (inactive) | 20.9 µM (inactive) | 17.9 µM (inactive) | 6.78 µM (inactive) | 10 µM (inactive) | 11.6 µM (inactive) | 12.1 µM (inactive) | 3.13 µM (inactive) | 13.6 µM (inactive) |  |
| Cc1sc2nc3n(c(=O)c2c1C)N=CN(c1ccc(Cl)cc1)C3 | > 100 µM (inactive) | > 100 µM (inactive) | > 100 µM (inactive) | 63.4 µM (inactive) | > 100 µM (inactive) | > 100 µM (inactive) | > 100 | > 100 µM (inactive) | > 100 µM (inactive) |  | > 100 µM (inactive) | 39.4 µM (inactive) | > 100 µM (inactive) | > 100 µM (inactive) | > 100 µM (inactive) | > 100 µM (inactive) | > 100 µM (inactive) | > 100 µM (inactive) | > 100 µM (inactive) | 33.3 µM (inactive) |
| CC(=O)c1sc2c(c1OC(=O)c1ccco1)c(=O)n(-c1ccccc1)c(=S)n2-c1ccccc1 | 30.3 µM (inactive) | 15 µM (inactive) | 16 µM (inactive) | 29.4 µM (inactive) | 8.11 µM (inactive) | 16.9 µM (inactive) | 18.7 | 4.89 µM (inactive) | 26.8 µM (inactive) | 4.19 µM (inactive) | 5.81 µM (inactive) | 23.2 µM (inactive) | 18.2 µM (inactive) | 14 µM (inactive) | 28.9 µM (inactive) |  | 18.1 µM (inactive) | 32.8 µM (inactive) | 12.9 µM (inactive) | 5.08 µM (inactive) |
| O=c1[nH]/c(=C/c2ccc(OCc3ccccc3)cn2)c(=O)[nH]/c1=C/c1ccc(F)cc1 | 3.74 µM (inactive) | 0.0902 µM (active) | 0.794 µM (active) | 0.0815 µM (active) | 0.698 µM (active) | 0.632 µM (active) | 0.157 | 0.194 µM (active) | 0.931 µM (active) | 0.923 µM (active) | 0.366 µM (active) | 1.73 µM (inactive) | 0.461 µM (active) | 1.62 µM (inactive) |  | 1.42 µM (inactive) | 4.97 µM (inactive) | 0.207 µM (active) | 0.243 µM (active) | 0.759 µM (active) |
| CN(C)C(=C1c2cc([N+](=O)[O-])ccc2-c2ccc([N+](=O)[O-])cc21)N(C)C | > 100 µM (inactive) | > 100 µM (inactive) | > 100 µM (inactive) | 2.37 µM (inactive) | > 100 µM (inactive) | > 100 µM (inactive) | > 100 | 3.32 µM (inactive) | > 100 µM (inactive) |  | > 100 µM (inactive) | > 100 µM (inactive) | > 100 µM (inactive) |  | > 100 µM (inactive) | > 100 µM (inactive) | > 100 µM (inactive) | > 100 µM (inactive) | > 100 µM (inactive) | > 100 µM (inactive) |
| Cc1ncc([N+](=O)[O-])n1CCNC(=O)CCC(=O)NCCCn1ccnc1[N+](=O)[O-] | > 100 µM (inactive) | > 100 µM (inactive) | > 100 µM (inactive) | > 100 µM (inactive) | > 100 µM (inactive) | > 100 µM (inactive) | > 100 | > 100 µM (inactive) | > 100 µM (inactive) | > 100 µM (inactive) | > 100 µM (inactive) | > 100 µM (inactive) | > 100 µM (inactive) | > 100 µM (inactive) | > 100 µM (inactive) |  | > 100 µM (inactive) | > 100 µM (inactive) | > 100 µM (inactive) | > 100 µM (inactive) |
| COc1ccc(C2=NN(c3ccccc3)C(c3cc4cc(Br)ccc4nc3Cl)C2)cc1 (stereo not given) | > 25 µM (inactive) | 14.3 µM (inactive) | > 25 µM (inactive) | 16.3 µM (inactive) | > 25 µM (inactive) | 23 µM (inactive) | 11.6 | > 25 µM (inactive) | > 25 µM (inactive) | > 25 µM (inactive) | > 25 µM (inactive) | > 25 µM (inactive) | 17.5 µM (inactive) | > 25 µM (inactive) | 20.3 µM (inactive) |  | > 25 µM (inactive) | > 25 µM (inactive) | > 25 µM (inactive) | > 25 µM (inactive) |
| COC1(c2ccc(Cl)cc2)SC=C(C)n2c1noc2=O (stereo not given) |  | > 100 µM (inactive) |  | > 100 µM (inactive) | > 100 µM (inactive) | > 100 µM (inactive) | > 100 | > 100 µM (inactive) | > 100 µM (inactive) |  | > 100 µM (inactive) | > 100 µM (inactive) | 78.7 µM (inactive) | > 100 µM (inactive) | 63.8 µM (inactive) | > 100 µM (inactive) | > 100 µM (inactive) | 29.7 µM (inactive) | > 100 µM (inactive) | > 100 µM (inactive) |
| Cc1ccc(NC(=O)S(N)(c2ccc(C)cc2)[N+](=O)[O-])cc1 (stereo not given) | > 100 µM (inactive) | > 100 µM (inactive) | > 100 µM (inactive) | > 100 µM (inactive) | > 100 µM (inactive) | > 100 µM (inactive) | > 100 | > 100 µM (inactive) | 89.7 µM (inactive) |  | > 100 µM (inactive) |  | > 100 µM (inactive) | > 100 µM (inactive) | > 100 µM (inactive) | > 100 µM (inactive) | > 100 µM (inactive) | > 100 µM (inactive) | > 100 µM (inactive) | > 100 µM (inactive) |

— ChEMBL document CHEMBL1201862, “PubChem BioAssay data set” (2004)
